System: PCA reaction
Test: PCA reaction-inhibitory effects in rats (passive cutaneous anaphylaxis, oral administration, Evans Blue dye exudation)
Format: in vivo, rats (female Sprague-Dawley)
Settings: for Inhibition (%) mean ± SE: one hour before challenge; for ED50: Rattus norvegicus, from the percent inhibition-concentration graph, read-out: ID50 against exudation of the dye
Description: DNP-ascaris (1 mg) prepared by combining a swine ascaris extract with 2,4-dinitrophenyl sulfate was mixed with 20 mg of aluminum hydroxide gel. The mixture was administered to rats subcutaneously on the back, and at the same time the animals were intraperitoneally given 2×10^10 dead Bordetella pertussis respectively. The same procedures were repeated after 14 days, and blood sample was obtained after 21 days to produce antisera.
Female Sprague-Dawley strain rats (8 weeks old) were sensitized by subcutaneously administering 0.1 ml of 1:256 diluted antisera (titer=1024)respectively on the grained back. After 48 hours, groups of four rats were orally given the amide derivatives produced in the examples above at various concentrations. After one hour, the rats were challenged by intravenously administering a 0.5% physiological saline solution of Evans Blue containing 1 mg of the DNP-ascaris from the tail. After 30 minutes, the animal was sacrificed by bleeding and the portion of the skin with the dye exuded was cut off. The cut skin was treated with 1N--KOH solution, and the dye was extracted by adding 9 ml of 0.6N-phosphoric acid-acetone (5:13) mixture. The supernatant from centrifugal separation was measured for absorbancy at 620 nm to determine amount of the dye. Percent inhibition at each of the concentrations of the amide derivatives was calculated in comparison with amount of the dye for control group. 50% Inhibitory concentration (ID50) of the amide derivatives against exudation of the dye was determined from the percent inhibition-concentration graph. Results are shown in Table-I. Percent inhibition of tranilast, an antiallergic agent commercially available from Kissei Pharmaceutical Co., Ltd. under the trade name of Rizaben against PCA reaction was also shown in Table-I. As shown in Table-I, the amide derivatives of the invention produced high PCA reaction-inhibitory effects.

## COc1ccc(/C=C/C(=O)Nc2ccccc2C(=O)O)cc1OC [Control, tranilast, reference compound]
100 mg/kg
  Inhibition (%) mean ± SE: 37 ± 8%
200 mg/kg
  Inhibition (%) mean ± SE: 40 ± 10%
300 mg/kg
  Inhibition (%) mean ± SE: 42 ± 5%
  ED50: > 300 mg/kg

## CCOC(=O)Oc1ccc(/C=C/C=C/C(=O)NCCN2CCC(OC(c3ccccc3)c3ccccc3)CC2)cc1OC [Example 1, 1-[2-[5-(3-methoxy-4-ethoxycarbonyloxyphenyl)-2,4-pentadienoyl]aminoethyl]-4-benzhydroxypiperidine]
3 mg/kg
  Inhibition (%) mean ± SE: 26 ± 15%
10 mg/kg
  Inhibition (%) mean ± SE: 51 ± 18%
30 mg/kg
  Inhibition (%) mean ± SE: 71 ± 6%
  ED50: 10 mg/kg

## CCOC(=O)Oc1ccc(/C=C/C(=O)NCCN2CCC(OC(c3ccccc3)c3ccccc3)CC2)cc1OC [Example 2, 1-[2-[3-(3-methoxy-4-ethoxycarbonyloxyphenyl)-2-propenoyl]-aminoethyl]-4-benzhydroxypiperidine]
3 mg/kg
  Inhibition (%) mean ± SE: 20 ± 15%
10 mg/kg
  Inhibition (%) mean ± SE: 41 ± 16%
30 mg/kg
  Inhibition (%) mean ± SE: 64 ± 5%
  ED50: 15 mg/kg

## CCOC(=O)Oc1ccc(/C=C/C=C/C(=O)NCCCN2CCN(C(c3ccccc3)c3ccccc3)CC2)cc1OC [Example 3, 1-[3-[5-(3-methoxy-4-ethoxycarbonyloxyphenyl)-2,4-pentadienoyl]aminopropyl]-4-benzhydrylpiperazine]
10 mg/kg
  Inhibition (%) mean ± SE: 19 ± 14%
30 mg/kg
  Inhibition (%) mean ± SE: 38 ± 15%
100 mg/kg
  Inhibition (%) mean ± SE: 63 ± 5%
  ED50: 55 mg/kg

## CCOC(=O)Oc1ccc(/C=C/C(=O)NCCN2CCC(OC(c3ccccc3)c3ccccc3)CC2)cc1OC(=O)OCC [Example 4]
3 mg/kg
  Inhibition (%) mean ± SE: 22 ± 14%
10 mg/kg
  Inhibition (%) mean ± SE: 46 ± 10%
30 mg/kg
  Inhibition (%) mean ± SE: 68 ± 7%
  ED50: 12 mg/kg

## CCOC(=O)Oc1ccc(/C=C/C=C/C(=O)NCCN2CCC(OC(c3ccccc3)c3ccccc3)CC2)cc1OC(=O)OCC [Example 5, 1-[2-[5-(3,4-diethoxycarbonyloxyphenyl)-2,4-pentadienoyl]aminoethyl]-4-benzhydroxypiperidine]
3 mg/kg
  Inhibition (%) mean ± SE: 30 ± 16%
10 mg/kg
  Inhibition (%) mean ± SE: 55 ± 10%
30 mg/kg
  Inhibition (%) mean ± SE: 75 ± 4%
